Results published in patent US11584737B2, “Heterocyclic compound” (TAKEDA PHARMACEUTICAL COMPANY LIMITED, priority 2018, dated 2023).

What was measured:
CDK12/CycK complex = CDK12/CycK complex (Homo sapiens, UniProt Q9NYV4); test: Measurement of CDK12 inhibitory activity by binding assay (BODIPY-FL labeled AT-7519 high concentration conditions, 1320 nM); settings: inhibitory rate against CDK12 at 1 μM test compound, 1320 nM BODIPY-FL-labeled AT-7519, 8 nM CDK12/CycK
Method: (4) Measurement of CDK12 Inhibitory Activity by Binding Assay (BODIPY-FL Labeled AT-7519 High Concentration Conditions)
His-tagged CDK12/CycK complex was blended with a binding assay buffer supplemented with BODIPY-FL labeled AT-7519, terbium-labeled streptavidin and biotin-labeled anti-histidine antibody. This solution was added to an assay plate containing a test compound dispensed therein, and the mixture was left standing for 120 min at room temperature. The final concentration of CDK12/CycK complex, BODIPY-FL-labeled AT-7519, terbium-labeled streptavidin and biotin-labeled anti-histidine antibody was set to 8 nM, 1320 nM, 0.2 nM, and 0.4 nM, respectively. The fluorescence intensity derived from terbium and BODIPY-FL was measured using Envision. The signal value of each well was determined using the TR-FRET ratio calculated by the following formula. TR-FRET ratio=(fluorescence value of BODIPY-FL)÷(fluorescence value of terbium)
The inhibitory rate (%) of the test compound against CDK12 was calculated by the following formula. Inhibitory rate (%)=(1−(TR-FRET ratio of test compound−blank)÷(control−blank))×100
The TR-FRET ratio of the CDK12 enzyme reaction mixture under compound non-addition conditions is indicated as control, and the TR-FRET ratio under 30 μM AT-7519 addition conditions is indicated as blank.
The inhibitory rate of the test compound against CDK12 at 1 μM is shown below.

A2780 cells = test: In vitro proliferation suppression test (CellTiter-Glo); format: cell-based, human; settings: A2780 cell proliferation inhibitory rate at 1 μM test compound, three days; for inhibition at 1 µM: Homo sapiens, 72 h
Method: Experimental Example 4: In Vitro Proliferation Suppression Test
The proliferation suppressive activity of compound in A2780 cells was evaluated by the following method.
A2780 cells were seeded in a 384-well white plate at a cell density of 1,000 cells/40 μL/well or a 96-well white plate at a cell density of 1,000 cells/90 μL/well using an assay medium (RPMI1640 medium containing 10% fetal bovine serum (FUJIFILM Wako Pure Chemical Corporation)) and incubated at 37° C. in 5% CO2.
The next day, a test compound dissolved in dimethyl sulfoxide (DMSO) was diluted with an assay medium, the obtained compound solution was added by 40 μL/well or 10 μL/well to each well of the plate containing A2780 cells and the mixture was incubated (test compound addition group). In addition, a similar reaction was performed without adding the test compound (test compound non-addition group).
Three days later, 80 μL or 100 μL of CellTiter-Glo reagent (Promega) was added, and the mixture was stirred for 10 min. Thereafter, the luminescence of each well was measured by ARVO-MX multilabel counter (Perkin Elmer Inc.).
The proliferation inhibitory rate (%) of each test compound against A2780 cells was calculated by the following calculation formula. Proliferation inhibitory rate (%)=(1−luminescence of test compound addition group÷luminescence of test compound non-addition group)×100
The A2780 cell proliferation inhibitory rate (%) of 1 μM test compound is shown below.

Sequence of CDK12/CycK complex (Q9NYV4 whole entry, species assumed): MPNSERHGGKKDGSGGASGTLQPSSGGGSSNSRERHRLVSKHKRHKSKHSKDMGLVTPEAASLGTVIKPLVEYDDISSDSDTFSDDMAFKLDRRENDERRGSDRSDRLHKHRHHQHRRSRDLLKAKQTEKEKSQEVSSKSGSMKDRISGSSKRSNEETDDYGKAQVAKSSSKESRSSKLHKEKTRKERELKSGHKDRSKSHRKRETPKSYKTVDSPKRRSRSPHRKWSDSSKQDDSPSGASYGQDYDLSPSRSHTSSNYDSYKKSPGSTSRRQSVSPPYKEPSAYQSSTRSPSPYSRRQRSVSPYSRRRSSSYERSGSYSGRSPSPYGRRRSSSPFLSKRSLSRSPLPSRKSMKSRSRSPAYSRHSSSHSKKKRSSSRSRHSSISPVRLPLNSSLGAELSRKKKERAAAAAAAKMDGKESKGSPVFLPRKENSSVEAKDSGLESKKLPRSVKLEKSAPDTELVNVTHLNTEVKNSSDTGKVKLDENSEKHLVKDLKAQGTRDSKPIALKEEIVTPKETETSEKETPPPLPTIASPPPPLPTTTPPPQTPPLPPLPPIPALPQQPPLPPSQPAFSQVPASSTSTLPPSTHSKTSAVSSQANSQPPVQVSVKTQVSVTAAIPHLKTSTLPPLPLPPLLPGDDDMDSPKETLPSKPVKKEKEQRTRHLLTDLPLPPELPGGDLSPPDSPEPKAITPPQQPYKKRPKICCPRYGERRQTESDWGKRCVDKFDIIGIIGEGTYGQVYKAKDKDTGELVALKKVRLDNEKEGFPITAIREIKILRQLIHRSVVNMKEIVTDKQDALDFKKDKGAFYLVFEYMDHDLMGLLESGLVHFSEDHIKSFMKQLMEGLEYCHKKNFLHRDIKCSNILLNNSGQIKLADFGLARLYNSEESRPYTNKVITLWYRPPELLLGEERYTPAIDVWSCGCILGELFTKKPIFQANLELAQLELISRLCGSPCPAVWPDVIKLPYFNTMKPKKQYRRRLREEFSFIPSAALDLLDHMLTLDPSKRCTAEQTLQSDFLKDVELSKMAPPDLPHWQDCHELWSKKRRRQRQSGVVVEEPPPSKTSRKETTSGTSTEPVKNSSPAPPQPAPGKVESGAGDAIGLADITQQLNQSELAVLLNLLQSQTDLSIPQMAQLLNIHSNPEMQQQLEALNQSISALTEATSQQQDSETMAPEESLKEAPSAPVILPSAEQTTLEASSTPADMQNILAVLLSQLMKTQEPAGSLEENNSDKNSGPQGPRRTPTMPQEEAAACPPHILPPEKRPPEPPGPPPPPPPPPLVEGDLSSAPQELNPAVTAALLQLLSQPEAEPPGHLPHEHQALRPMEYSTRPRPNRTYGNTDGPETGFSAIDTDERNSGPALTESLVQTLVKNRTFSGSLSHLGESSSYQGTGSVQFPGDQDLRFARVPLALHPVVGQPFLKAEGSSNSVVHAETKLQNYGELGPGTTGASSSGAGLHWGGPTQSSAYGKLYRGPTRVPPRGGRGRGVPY
Sequence of CDK12/CycK complex (O75909 whole entry partner, species assumed): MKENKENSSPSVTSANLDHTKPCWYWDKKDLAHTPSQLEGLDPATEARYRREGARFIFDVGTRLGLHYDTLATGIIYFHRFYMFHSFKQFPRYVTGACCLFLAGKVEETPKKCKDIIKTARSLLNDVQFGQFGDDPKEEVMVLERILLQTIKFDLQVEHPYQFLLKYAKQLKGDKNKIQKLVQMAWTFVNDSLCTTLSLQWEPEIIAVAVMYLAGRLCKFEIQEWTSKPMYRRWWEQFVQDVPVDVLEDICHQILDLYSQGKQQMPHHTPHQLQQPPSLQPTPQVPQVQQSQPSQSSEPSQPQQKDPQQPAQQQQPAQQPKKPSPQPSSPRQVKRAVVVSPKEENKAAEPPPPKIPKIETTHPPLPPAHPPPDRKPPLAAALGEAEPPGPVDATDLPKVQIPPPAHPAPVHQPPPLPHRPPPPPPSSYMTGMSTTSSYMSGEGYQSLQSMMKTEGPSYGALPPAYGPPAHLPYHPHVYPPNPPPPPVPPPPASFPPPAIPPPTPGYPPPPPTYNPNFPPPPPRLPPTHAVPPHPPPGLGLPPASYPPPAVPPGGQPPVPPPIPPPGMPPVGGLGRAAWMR

With `CCCC(=O)N(c1cnc(-c2cnc(OC)nc2)cn1)[C@H]1CC[C@H](Nc2ncc(C(F)(F)F)c(-c3cncc(S(C)(=O)=O)c3)n2)CC1` [Example 798, N-(trans-4-((4-(5-(methanesulfonyl)pyridin-3-yl)-5-(trifluoromethyl)pyrimidin-2-yl)amino)cyclohexyl)-N-(5-(2-methoxypyrimidin-5-yl)pyrazin-2-yl)butanamide] the inhibition at 1 µM (CDK12/CycK complex) was 92% and the inhibition at 1 µM (A2780 cells) was 99%.

Compound `CCOCC(=O)N(c1cnc(-c2cnn(C)c2)cn1)[C@H]1CC[C@H](Nc2ncc(C(F)(F)F)c(-c3cncc(S(C)(=O)=O)c3)n2)CC1` [Example 831, 2-ethoxy-N-(trans-4-((4-(5-(methanesulfonyl)pyridin-3-yl)-5-(trifluoromethyl)pyrimidin-2-yl)amino)cyclohexyl)-N-(5-(1-methyl-1H-pyrazol-4-yl)pyrazin-2-yl)acetamide] has an inhibition at 1 µM (CDK12/CycK complex) of 107% and an inhibition at 1 µM (A2780 cells) of 99%.

In the case of `COc1ncc(-c2ccc(N(C(=O)NCC(C)(C)O)[C@H]3CC[C@H](Nc4ncc(C(F)(F)F)c(-c5ccn(C(F)F)n5)n4)CC3)nc2)cn1` [Example 849, 1-(trans-4-((4-(1-(difluoromethyl)-1H-pyrazol-3-yl)-5-(trifluoromethyl)pyrimidin-2-yl)amino)cyclohexyl)-3-(2-hydroxy-2-methylpropyl)-1-(5-(2-methoxypyrimidin-5-yl)pyridin-2-yl)urea], the inhibition at 1 µM (CDK12/CycK complex) is reported as 110% and the inhibition at 1 µM (A2780 cells) is reported as 97%.

In the case of `CCCC(=O)N(c1ccc(-c2cnc(OC)nc2)cn1)[C@H]1CC[C@H](Nc2ncc(C(F)(F)F)c(-c3cncc(S(C)(=O)=O)c3)n2)CC1` [Example 858, N-(trans-4-((4-(5-(methanesulfonyl)pyridin-3-yl)-5-(trifluoromethyl)pyrimidin-2-yl)amino)cyclohexyl)-N-(5-(2-methoxypyrimidin-5-yl)pyridin-2-yl)butanamide], the inhibition at 1 µM (CDK12/CycK complex) is reported as 109% and the inhibition at 1 µM (A2780 cells) is reported as 99%.

In the case of `COc1ncc(-c2ccc(N(C(=O)NCC(F)F)[C@H]3CC[C@H](Nc4ncc(C(F)(F)F)c(-c5n[nH]cc5Cl)n4)CC3)nc2)cn1` [Example 693, 1-(trans-4-((4-(4-chloro-1H-pyrazol-3-yl)-5-(trifluoromethyl)pyrimidin-2-yl)amino)cyclohexyl)-3-(2,2-difluoroethyl)-1-(5-(2-methoxypyrimidin-5-yl)pyridin-2-yl)urea], the inhibition at 1 µM (CDK12/CycK complex) is reported as 100% and the inhibition at 1 µM (A2780 cells) is reported as 98%.

`COc1ncc(-c2cnc(N(C(=O)NCC3(F)CC3)[C@H]3CC[C@H](Nc4ncc(C(F)(F)F)c(-c5n[nH]cc5Cl)n4)CC3)cn2)cn1` [Example 742, 1-(trans-4-((4-(4-chloro-1H-pyrazol-3-yl)-5-(trifluoromethyl)pyrimidin-2-yl)amino)cyclohexyl)-3-((1-fluorocyclopropyl)methyl)-1-(5-(2-methoxypyrimidin-5-yl)pyrazin-2-yl)urea] gave an inhibition at 1 µM (CDK12/CycK complex) of 87% and an inhibition at 1 µM (A2780 cells) of 96%.

`COc1ncc(-c2cnc(N(C(=O)NCC(C)(F)F)[C@H]3CC[C@H](Nc4ncc(C(F)(F)F)c(-c5n[nH]cc5Cl)n4)CC3)cn2)cn1` [Example 740, 1-(trans-4-((4-(4-chloro-1H-pyrazol-3-yl)-5-(trifluoromethyl)pyrimidin-2-yl)amino)cyclohexyl)-3-(2,2-difluoropropyl)-1-(5-(2-methoxypyrimidin-5-yl)pyrazin-2-yl)urea] gave an inhibition at 1 µM (CDK12/CycK complex) of 86% and an inhibition at 1 µM (A2780 cells) of 96%.

`Cn1cc(-c2cnc(N(C(=O)OCC(C)(C)O)[C@H]3CC[C@H](Nc4ncc(C(F)(F)F)c(-c5cncc(S(C)(=O)=O)c5)n4)CC3)cn2)cn1` [Example 838, 2-hydroxy-2-methylpropyl (trans-4-((4-(5-(methanesulfonyl)pyridin-3-yl)-5-(trifluoromethyl)pyrimidin-2-yl)amino)cyclohexyl) (5-(1-methyl-1H-pyrazol-4-yl)pyrazin-2-yl)carbamate] gave an inhibition at 1 µM (CDK12/CycK complex) of 103% and an inhibition at 1 µM (A2780 cells) of 98%.

For `COc1ncc(-c2ccc(N(C(=O)OCCN(C)C)[C@H]3CC[C@H](Nc4ncc(C(F)(F)F)c(-c5cncc(S(C)(=O)=O)c5)n4)CC3)nc2)cn1` [Example 848, 2-(dimethylamino)ethyl (trans-4-((4-(5-(methanesulfonyl)pyridin-3-yl)-5-(trifluoromethyl)pyrimidin-2-yl)amino)cyclohexyl) (5-(2-methoxypyrimidin-5-yl)pyridin-2-yl)carbamate], the “1 μM inhibitory rate (%)” value (CDK12/CycK complex) was 108% and the “1 μM inhibitory rate (%)” value (A2780 cells) was 99%.
